From PubChem BioAssay (NCI)
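How tested: cells in 96-well plates exposed to compound for 48 hours at five concentrations. The concentration for 50% growth inhibition is given as GI50. TGI denotes the concentration required for complete inhibition of growth.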

Experiments:
Experiment in all cases: growth of human tumour cells (NCI), 48 h
786-0 renal = test system: 786-0 renal
A498 renal = test system: A498 renal
A549 NSCLC = test system: A549 NSCLC
ACHN renal = test system: ACHN renal
BT-549 breast = test system: BT-549 breast
CAKI-1 renal = test system: CAKI-1 renal
CCRF-CEM leukemia = test system: CCRF-CEM leukemia
COLO 205 colon = test system: COLO 205 colon
DU-145 prostate = test system: DU-145 prostate
EKVX NSCLC = test system: EKVX NSCLC
HCC-2998 colon = test system: HCC-2998 colon
HCT-116 colon = test system: HCT-116 colon
HCT-15 colon = test system: HCT-15 colon
HL-60(TB) leukemia = test system: HL-60(TB) leukemia
HOP-62 NSCLC = test system: HOP-62 NSCLC
HOP-92 NSCLC = test system: HOP-92 NSCLC
HS 578T breast = test system: HS 578T breast
HT29 colon = test system: HT29 colon
IGROV1 ovarian = test system: IGROV1 ovarian
K-562 leukemia = test system: K-562 leukemia
KM12 colon = test system: KM12 colon
LOX IMVI melanoma = test system: LOX IMVI melanoma
M14 melanoma = test system: M14 melanoma
MALME-3M melanoma = test system: MALME-3M melanoma
MCF7 breast = test system: MCF7 breast
MDA-MB-231 breast = test system: MDA-MB-231 breast
MDA-MB-435 = test system: MDA-MB-435
MOLT-4 leukemia = test system: MOLT-4 leukemia
NCI-H226 lung = test system: NCI-H226 lung

For `CCOC(=O)/C(C#N)=C1\SS/C(=C(/C#N)C(=O)OCC)S1`, the GI50 (786-0 renal) was 19.2 µM, the TGI (786-0 renal) was 34.1 µM and the GI50 (A498 renal) was 63.9 µM. The TGI (A498 renal) was over 100 µM, the GI50 (A549 NSCLC) was 40 µM and the TGI (A549 NSCLC) was over 100 µM. It also gave a GI50 (ACHN renal) of 14.8 µM, a TGI (ACHN renal) of 29.5 µM and a GI50 (BT-549 breast) of 17.8 µM. The TGI (BT-549 breast) was 32.7 µM, the GI50 (CAKI-1 renal) was 4.38 µM and the TGI (CAKI-1 renal) was 18.6 µM. For the same molecule, the GI50 (CCRF-CEM leukemia) was 4.62 µM, the TGI (CCRF-CEM leukemia) was 67.7 µM and the GI50 (COLO 205 colon) was 0.861 µM. The TGI (COLO 205 colon) was 2.67 µM, the GI50 (DU-145 prostate) was 18.2 µM and the TGI (DU-145 prostate) was 33.6 µM. The GI50 (EKVX NSCLC) was 19.6 µM, the TGI (EKVX NSCLC) was 50.4 µM and the GI50 (HCC-2998 colon) was 20.1 µM. The TGI (HCC-2998 colon) was 39.9 µM, the GI50 (HCT-116 colon) was 14.2 µM and the TGI (HCT-116 colon) was 33.5 µM. For the same molecule, the GI50 (HCT-15 colon) was 18 µM, the TGI (HCT-15 colon) was 61.4 µM and the GI50 (HL-60(TB) leukemia) was 22.6 µM. It also gave a TGI (HL-60(TB) leukemia) of 63 µM, a GI50 (HOP-62 NSCLC) of 26.1 µM and a TGI (HOP-62 NSCLC) of 86.7 µM. The GI50 (HOP-92 NSCLC) was 14.3 µM, the TGI (HOP-92 NSCLC) was 28.3 µM and the GI50 (HS 578T breast) was 47.9 µM. For the same molecule, the TGI (HS 578T breast) was over 100 µM, the GI50 (HT29 colon) was 3.92 µM and the TGI (HT29 colon) was 22.3 µM. For the same molecule, the GI50 (IGROV1 ovarian) was 14.2 µM, the TGI (IGROV1 ovarian) was 33 µM and the GI50 (K-562 leukemia) was 7.99 µM. The TGI (K-562 leukemia) was over 100 µM, the GI50 (KM12 colon) was 20.1 µM and the TGI (KM12 colon) was 41.3 µM. It also gave a GI50 (LOX IMVI melanoma) of 13.9 µM, a TGI (LOX IMVI melanoma) of 57.4 µM and a GI50 (M14 melanoma) of 17 µM. For the same molecule, the TGI (M14 melanoma) was 35.9 µM, the GI50 (MALME-3M melanoma) was 11.6 µM and the TGI (MALME-3M melanoma) was 27.4 µM. For the same molecule, the GI50 (MCF7 breast) was 18.3 µM, the TGI (MCF7 breast) was 41.1 µM and the GI50 (MDA-MB-231 breast) was 14.9 µM. The TGI (MDA-MB-231 breast) was 29.6 µM, the GI50 (MDA-MB-435) was 17.1 µM and the TGI (MDA-MB-435) was 33.1 µM. For the same molecule, the GI50 (MOLT-4 leukemia) was 10.8 µM, the TGI (MOLT-4 leukemia) was 57.8 µM and the GI50 (NCI-H226 lung) was 19.6 µM. It also gave a TGI (NCI-H226 lung) of 38.6 µM.
